Laboratory results from patent publication US9561237B1, “Bis-(triethylphosphine)platinum(II) complexes with thiones as anti cancer agents” (KING FAHD UNIVERSITY OF PETROLEUM AND MINERALS, priority 2016, dated 2017).

Assays:
Type in all cases: cell-based
[1] = system: MCF-7 (human breast cancer) cell line; experiment: In vitro cytotoxic activity, MTT assay, MCF-7; settings: for IC50: MCF7, 50, 25, 12.5 and 6.25 μM, three independent experiments, read-out: IC50 ± SEM (50% cell growth inhibition), MCF7; for Cytotoxic activity in words (comparison): MCF-7, 6.2 μM to 50 μM
Description: (§1) A Pt(II) metal precursor, cisplatin, carboplatin and seven synthesized complexes (1)-(7) were evaluated for their in-vitro cytotoxic activity against HeLa (human cervical cancer), A549 (human lung cancer), MCF-7 (human breast cancer) and HTC15 (human colon cancer) cell lines.
(§2) The cells were seeded at 4×10^3 cells/well in 100 μL DMEM (Dulbecco's Modified Eagle's Medium) containing 10%. FBS (Fetal Bovine Serum) in 96-well tissue culture plate and incubated for 72 h at 37° C., 5% CO2 in air and 90% relative humidity in CO2 incubator. […] The medium of wells was discarded and 100 μL DMEM containing MTT (3-(4,5-dimethylthiazol-2-Yl)-2,5-diphenyltetrazolium bromide) (5 mg/mL) was added to the wells and incubated in CO2 incubator at 37° C. in dark for 4 h. After incubation, a purple colored formazan (artificial chromogenic dye, product of the reduction of water insoluble tetrazolium salts e.g., MMT by dehydrogenases and reductases) in the cells is produced and appeared as dark crystals in the bottom of the wells. The medium of culture was discarded from each well carefully to avoid disruption of monolayer and 100 μL of dimethylsufoxide (DMSO) was added in each well. The solution was thoroughly mixed in the wells to dissolve the formazan crystals which ultimately result into a purple solution. The absorbance of the 96-wells plate was taken at 570 nm with Labsystems Multiskan EX-Enzyme-linked immunosorbent assay (EX-ELISA) reader against a reagent blank. The IC50 values were calculated from three independent experiments by generating an equation of logarithmic trendline of percentage cell viability against concentration of compounds in Microsoft Excel.
(§3) Preliminary anti-cancer activity studies were carried out on seven synthesized Pt(II) complexes (1)-(7), Pt(II) precursor, cisplatin and carboplatin against four cancer cell lines HeLa, A549, HCT15 and MCF-7 (human cancer cell lines) and an MTT assay was used to determine their dose-dependent cytotoxicity after 72 h [U. Bierbach, T. W. Hambly, N. Farrell, Inorg.
(§4) The MTT assay was performed in three independent experiments, each in triplicate. The cancer cell lines used are HeLa (human cervical cancer), A549 (human lung cancer), MCF-7 (human breast cancer) and HCT15 (human colon cancer) cell lines.

[2] = system: A549 (human lung cancer) cell line; experiment: In vitro cytotoxic activity, MTT assay, A549; settings: for IC50: 50, 25, 12.5 and 6.25 μM, three independent experiments, read-out: IC50 ± SEM (50% cell growth inhibition), A549; for Cytotoxic activity in words (comparison): 6.2 μM to 50 μM
Description: as §1, §2, §3, §4

[3] = system: HCT15 (human colon cancer) cell line; experiment: In vitro cytotoxic activity, MTT assay, HCT15; settings: for IC50: 50, 25, 12.5 and 6.25 μM, three independent experiments, read-out: IC50 ± SEM (50% cell growth inhibition), HCT15; for Cytotoxic activity in words (comparison): 6.2 μM to 50 μM
Description: as §1, §2, §3, §4

[4] = system: HeLa (human cervical cancer) cell line; experiment: In vitro cytotoxic activity, MTT assay, HeLa; settings: for IC50: 50, 25, 12.5 and 6.25 μM, three independent experiments, read-out: IC50 ± SEM (50% cell growth inhibition), HeLa; for Cytotoxic activity in words (comparison): 6.2 μM to 50 μM
Description: as §1, §2, §3, §4

Compound | IC50 [1] | IC50 [2] | IC50 [3] | IC50 [4] | Cytotoxic activity in words (comparison) [1] | Cytotoxic activity in words (comparison) [2] | Cytotoxic activity in words (comparison) [3] | Cytotoxic activity in words (comparison) [4]
CCP(CC)CC.CCP(CC)CC.[Cl][Pt][Cl] [Pt(II) precursor, cis-Bis(triethylphosphine)platinum(II)chloride, reference compound] | 59.8 ± 2.15 µM | 55.6 ± 2.53 µM | 39.1 ± 1.98 µM | 45.8 ± 2.33 µM |  |  |  | 
CCN1CCCNC1=[SH][Pt+2]([SH]=C1NCCCN1CC)([PH](CC)(CC)CC)[PH](CC)(CC)CC.[Cl-].[Cl-] [Complex (6)] | 1.23 ± 0.34 µM | 3.6 ± 0.72 µM | 5.7 ± 0.91 µM | 1.83 ± 0.35 µM | highest activity | better than cisplatin and carboplatin | better than cisplatin and carboplatin | better than cisplatin and carboplatin
cis-bis(triethylphosphine)di(1-methylimidazolidine-2-thione)platinum(II) [Complex (2)] | 2.63 ± 0.88 µM | 3.93 ± 0.47 µM | 8.6 ± 0.93 µM | 1.83 ± 0.26 µM |  |  |  | 
CC[PH](CC)(CC)[Pt+2]([SH]=C1NCCCCN1)([SH]=C1NCCCCN1)[PH](CC)(CC)CC.[Cl-].[Cl-] [Complex (7), cis-bis(triethylphosphine)di(1,3-diazepane-thione)platinum(II)] | 22.3 ± 1.35 µM | 27.7 ± 1.48 µM | 37.1 ± 1.86 µM | 17.3 ± 1.34 µM |  |  |  | 
N.N.O=C([O-])C1(C(=O)[O-])CCC1.[Pt+2] [Carboplatin, carboplatin, reference compound] | 55.6 ± 2.53 µM | 71.2 ± 2.84 µM | 63.9 ± 2.25 µM | 56.5 ± 2.23 µM |  |  |  | 
N.N.[Cl][Pt][Cl] [Cisplatin, cis-diaminedichlorido platinum(II) complex cis-[(NH3)2PtCl2], reference compound] | 22.4 ± 1.37 µM | 41.7 ± 1.17 µM | 29.7 ± 2.35 µM | 19.2 ± 1.81 µM |  |  |  | 
CC[PH](CC)(CC)[Pt+2]([SH]=C1N(C)CCN1C)([SH]=C1N(C)CCN1C)[PH](CC)(CC)CC.[Cl-].[Cl-] [Complex (3), cis-bis(triethylphosphine)di(1,3-dimethylimidazolidine-2-thione)platinum(II)] | 3.77 ± 0.61 µM | 2.37 ± 0.29 µM | 4.23 ± 0.73 µM | 1.5 ± 0.21 µM | most effective against all cancer cell lines | most effective against all cancer cell lines | most effective against all cancer cell lines | most effective against all cancer cell lines
CCN1CCN(CC)C1=[SH][Pt+2]([SH]=C1N(CC)CCN1CC)([PH](CC)(CC)CC)[PH](CC)(CC)CC.[Cl-].[Cl-] [Complex (4), cis-bis(triethylphosphine)di(1,3-diethylimidazolidine-2-thione)platinum(II)] | 13.5 ± 1.36 µM | 12.6 ± 1.09 µM | 16.1 ± 1.13 µM | 9.9 ± 1.65 µM |  |  |  | 
CC[PH](CC)(CC)[Pt+2]([SH]=C1NCCN1)([SH]=C1NCCN1)[PH](CC)(CC)CC.[Cl-].[Cl-] [Complex (1), cis-bis(triethylphosphine)di(imidazolidine-2-thione)platinum(II)] | 4.67 ± 1.05 µM | 3.5 ± 0.74 µM | 7.03 ± 1.04 µM | 1.4 ± 0.29 µM |  |  |  | 
cis-bis(triethylphosphine)di(tetrahydropyrimidine-2(1H)-thione)platinum(II) [Complex (5)] | 4.73 ± 0.95 µM | 4.5 ± 0.78 µM | 6.87 ± 1.07 µM | 2.23 ± 0.52 µM |  |  |  | 
